# Laboratory results: patent publication US7507792B2, “MDA-7 proteins and methods of use thereof” (The Trustees of Columbia University In The City of New York, priority 1993, dated 2009)
# “Also recorded” adds a separate entry of the source. Starred links: 1 amine or outer side, 2 acyl side, 3 side chain; linkers in the order of their positions; H or OH if unused. Positions of bridges follow the written chain, without caps; N, C: chain ends. Non-standard residues stand in square brackets, D forms with d. Residues, ends and D or L forms follow the SMILES beside them. Chains are numbered I, II in the order given. Actinocin(9to1) = Cc1c2oc3c(C)ccc(C(=O)[*:1])c3nc-2c(C(=O)[*:2])c(N)c1=O; NMeV = CN[C@H](C(=O)O)C(C)C; Sar = CNCC(=O)O
# Experiments:
# [1] = test system: H0-1 human melanoma cell line; test: 96-h growth suppression (cell number by Coulter Counter); assay type: cell-based; settings: H0-1 cells, degree of initial 96 hr growth suppression versus untreated control
# Description: FIG. 1A-B Effect of continuous exposure to various growth and differentiation modulating agents on the 96-h growth of the human melanoma cell line, H0-1. Cells were seeded at 5×10^4/35-mm tissue culture plate and 24 h later the medium was changed with the indicated compounds. Cell numbers were determined by Coulter Counter after 96-h growth. Further details can be found in Materials and Methods.
# The H0-1 cell line is a melanotic melanoma derived from a person and was used between passage 100 and 125 (6,8,13). H0-1 cells were kindly provided by Dr. Beppino C. Giovanella, Stehlin Foundation for Cancer Research, Houston, Tex. Cultures were grown at 37° C. in a 95% air 5% CO2-humidified incubator in Dulbecco's modified Eagle's medium (DMEM) supplemented with 10% fetal bovine serum (DMEM-10) (Hyclone, Logan, Utah). H0-1 cells were maintained in the logarithmic stage of growth by subculturing (1:5 or 1:10) prior to confluency approximately every 4 to 5 days. […] Total cell numbers were determined after days 4, 7, 14, and 21, using a ZM Coulter Counter, and viable cell numbers were determined by trypan blue dye exclusion (6). […] Increases in cell number (two or more population doublings) after removal of the inducing agent(s) was considered reversible growth suppression. […] Conditioned medium was collected from treated cultures, contaminating cells were removed by centrifugation at 1000 rpm/10 min., and conditioned medium was stored at 4° C. until assayed for gene modulatory activity. Control conditioned medium was obtained as experimental conditioned medium from cells receiving only a medium change 24 hours after plating in the absence of test compound(s) and growth for 72 hours in DMEM-10.
# H0-1 cells = test: Northern blotting analysis of steady-state mRNA levels; assay type: cell-based, human; settings: FIG. 1 concentrations
# Description: Steady-state levels of specific mRNAs were determined by Northern blotting analysis of total RNA probed with appropriate ^32P-labeled gene probes as described previously (14-16). RNAs were analyzed from cells treated with inducer for 24 hours, treated for 24 hours with inducer followed by growth for 72 hours in the absence of inducer, or treated continuously for 96 hours with the inducer. The concentration of inducing compounds used were the same as those used for growth studies. The effect of conditioned medium on gene expression changes was determined by treating H0-1 cells for 24 hours with a 1:2 dilution of conditioned medium (equal volumes of conditioned medium and DMEM supplemented with 10% fetal bovine serum (DMEM-10) or for 96 hours with a 1:4 dilution of conditioned medium (1 vol. of conditioned medium to 3 vol. of DMEM-10). The probes used in the present study were specific for β-actin (17), γ-actin (17), c-jun (18), c-myc (19), fibronectin (20), gro/MGSA (21), HLA Class I antigen (22), HLA Class II antigen (HLA-DRβ) (22), α5 integrin (23), β1 integrin (24), ISG-15 (25), ISG-54 (25), jun-B (26), and tenascin (27). Northern blots were also probed with a ^32P-labeled GAPDH gene (15) to verify similar mRNA expression under the various experimental conditions. Following hybridization, the filters were washed and exposed for autoradiography.
# mda-4 = mda-4 expression (Northern blotting); assay type: cell-based, human; settings: H0-1
# Description: (§1) The mass excision of the library was performed using ExAssist helper phage as described above. The SOLR strain of Escherichia coli and cDNA phagemids were mixed at 37° C. for 15 min and plated onto LB plates containing ampicillin and IPTG/X-gal. White colonies were chosen at random, isolated and grown in LB medium. Plasmid minireps and restriction enzyme digestions were performed to confirm the presence of inserts. The inserts were isolated and used as robes for Northern blotting analysis (5,25). […] Radiolabeled probes were generated by random oligonucleotide priming (25). Prehybridization, hybridization, posthybridization washes, and autoradiography were performed as described (5,18,25).
# mda-5 = mda-5 expression (Northern blotting); assay type: cell-based, human; settings: H0-1
# Description: as §1
# mda-6 = mda-6 expression (Northern blotting); assay type: cell-based, human; settings: H0-1
# Description: as §1
# Total cytoplasmic RNA was isolated and Northern blotting hybridization was performed as described (Reddy et al., 1991; Su et al., 1991; Jiang et al., 1992). Ten μg of RNA was denatured with glyoxal/DMSO, electrophoresed on 1.0% agarose gels, transferred to nylon membranes and hybridized to a ^32P-labeled p53 probe (Baker et al., 1990). The nylon membrane was stripped and hybridized to a ^32P-labeled mda-6 probe (Jiang and Fisher, 1993) and then after a second stripping the membrane was hybridized to a ^32P-labeled rat GAPDH probe (Fort et al., 1985), as described previously (Reddy et al., 1991; Su et al., 1991; Jiang et al., 1992). Following hybridization, the filters were washed and exposed for autoradiography (Reddy et al., 1991; Su et al., 1991; Jiang et al., 1992). mda-6 and GAPDH gene expression were also determined by reverse transcription-polymerase chain reaction (RT-PCR) as described (Adollahi et al., 1991; Lin et al., 1994; Jiang et al., 1994b). Total cytoplasmic RNA was treated with 0.5 units DNase (Boehringer-Mannheim Biochemicals)/μg RNA in 15% glycerol, 10 mM Tris, pH 7.5, 2.5 mM MgCl2, 0.1 mM EDTA, 80 mM KCl, 1 mM CaCl2 and 1 unit/ml RNasin (Promega) at 30° C. for 10 min. RNA was extracted with phenol-chloroform, precipitated with sodium acetate/ethanol and RNA pellets were resuspended in diethylpyrocarbonate-treated H2O. One μg of total RNA was reverse transcribed with 200 units of murine leukemia virus reverse transcriptase (Bethesda Research Laboratories) in 20 μl containing 1 mM deoxyribonucleotide triphosphates, 4 mM MgCl2, 10 mM Tris, pH 8.3, 50 mM KCl, 0.001% gelatin and 0.2 μg oligo-dT primer. Samples were adjusted to 100 μl with buffer containing 0.2 mM deoxyribonucleotide triphosphates, 2 mM MgCl2, 10 mM Tris, pH 8.3, 50 mM KCl and 0.001% gelatin. Fifty pmol of each primer, 1.5 units Taq DNA polymerase (Perkin-Elmer Cetus) were added and samples were covered with mineral oil, heated at 95° C. for 5 min and subjected to 25 cycles of PCR in a Perkin-Elmer Thermal Cycler using 1 min denaturation at 94° C., 2 min annealing at 55° C. and 3 min polymerization at 72° C. After extraction with chloroform, 20 μl of products were electrophoresed, blotted onto nylon filters and hybridized with an mda-6 or GAPDH specific probe. The mda-6 primers were 5′ to 3′ […] (SEQ ID NO:26) and […] (SEQ ID NO:27)(corresponding to nt 1527 to 1546) (GenBank accession number U09579); and the GAPDH primers were 5′ to 3′ […] (SEQ ID NO:28)and […] (SEQ ID NO:29)(corresponding to nt 1070 to 1053) (Tokunaga et al., 1987).
# mda-7 = mda-7 expression (Northern blotting, RT-PCR); assay type: cell-based, human; settings: for mda-7 expression: H0-1
# Description: as §1
# mda-8 = mda-8 expression (Northern blotting); assay type: cell-based, human; settings: H0-1
# Description: as §1
# mda-9 = mda-9 expression (Northern blotting); assay type: cell-based, human; settings: H0-1
# Description: as §1
# [2] = 96 hours, doses of FIG. 15 legend
# [3] = 24 hours, doses of FIG. 19, phenyl butyrate 24 hours, 4 days or 7 days
# [4] = 24 hours, doses of FIG. 19, phenyl butyrate 24 hours, 4 or 7 days
Molecule,mda-4 expression (mda-4; [3]),mda-5 expression (mda-5; [3]),mda-6 expression (mda-6; [4]),mda-7 expression (mda-7; [3]),mda-8 expression (mda-8; [3]),mda-9 expression (mda-9; [3]),further results
"COc1c(C)c2c(c(O)c1C/C=C(\C)CCC(=O)O)C(=O)OC2 [MPA, mycophenolic acid]",,,,,,,Growth Suppression (reversible) ([1]; Table 1): 3+ (3+ = ~50 to 60% reduction in growth in comparison with untreated control cultures); Growth Suppression (reversible) ([1]; Table 2): − (− = no significant change in growth (<10% reduction in growth in comparison with untreated control cultures)); HLA Class I antigen gene expression (H0-1 cells; 96 h): did not significantly alter; fibronectin expression (H0-1 cells; 96 h): most effective single agents; induction of gro/MGSA gene expression (H0-1 cells; 96 h): did not; tenascin expression (H0-1 cells; 96 h): enhanced tenascin expression; c-jun and jun-B expression (H0-1 cells; 96 hours): increase; c-myc expression (H0-1 cells; 96 hours): downregulated; mda-4 expression (mda-4; [2]): No or only a small change in expression; mda-5 expression (mda-5; [2]): No change in expression; mda-6 expression (mda-6; [2]): no significant or reduced alteration in expression; mda-7 expression (mda-7; [2]): Increased expression; also recorded: induced; mda-8 expression (mda-8; [2]): No change in expression; mda-9 expression (mda-9; [2]): No change in mda-9 expression
COc1cc([C@@H]2c3cc4c(cc3[C@@H](O[C@@H]3O[C@@H]5CO[C@@H](C)O[C@H]5[C@H](O)[C@H]3O)[C@H]3COC(=O)[C@H]23)OCO4)cc(OC)c1O [VP-16],No or only a small change in expression,No change in expression,increased expression,No induction in mda-7 expression,No change in expression,Increased expression,
"Cc1c2oc3c(C)ccc(C(=O)N[C@@H]4C(=O)N[C@H](C(C)C)C(=O)N5CCC[C@H]5C(=O)N(C)CC(=O)N(C)[C@@H](C(C)C)C(=O)O[C@@H]4C)c3nc-2c(C(=O)N[C@@H]2C(=O)N[C@H](C(C)C)C(=O)N3CCC[C@H]3C(=O)N(C)CC(=O)N(C)[C@@H](C(C)C)C(=O)O[C@@H]2C)c(N)c1=O [actinomycin D] (I: T[dV]P[Sar][NMeV] / II: T[dV]P[Sar][NMeV]; ester I:1-I:C, II:1-II:C; linker I:N-II:N via Actinocin(9to1))",No or only a small change in expression,No change in expression,increased expression,No induction in mda-7 expression,Increased expression,No change in mda-9 expression,
"COc1cccc2c1C(=O)c1c(O)c3c(c(O)c1C2=O)C[C@@](O)(C(=O)CO)C[C@@H]3O[C@H]1C[C@H](N)[C@H](O)[C@H](C)O1 [adriamycin, Adriamycin]",No or only a small change in expression,No change in expression,increased expression,increased mda-7 expression,Increased expression,,
N.N.[Cl][Pt][Cl] [cis-platinum],increased expression,No change in expression,Decreased expression,No induction in mda-7 expression,Increased expression,No change in mda-9 expression,
COS(C)(=O)=O [methyl methanesulfonate],,,,,,,mda-6 expression (mda-6; 2 h exposure to 25 μg/ml): Elevated mda-6 expression
CCCC(=O)Oc1ccccc1 [phenyl butyrate],No or only a small change in expression,No change in expression,Decreased expression,No induction in mda-7 expression,No change in expression,Increased expression,
"CC[C@]1(O)C[C@H]2CN(CCc3c([nH]c4ccccc34)[C@@](C(=O)OC)(c3cc4c(cc3OC)N(C=O)[C@H]3[C@@](O)(C(=O)OC)[C@H](OC(C)=O)[C@]5(CC)C=CCN6CC[C@]43[C@@H]65)C2)C1 [vincristine, Vincristine]",No or only a small change in expression,No change in expression,No change in mda-6 expression,increased mda-7 expression,No change in expression,No change in mda-9 expression,
IFN-α,increased expression,increased expression,Decreased expression,No induction in mda-7 expression,No change in expression,Increased expression,
TNF-α,No or only a small change in expression,No change in expression,Decreased expression,No induction in mda-7 expression,No change in expression,Increased expression,
phenylacetate,,,,,,,"mda-7 expression (RT-PCR) (mda-7; LAN human neuroblastoma cells, 5 days): induced"
